Measured values published in patent publication US8530493B2, “Indolopyridines as Eg5 kinesin modulators” (4SC AG, priority 2006, dated 2013).

Columns and labels:
[1] = system: RKO p27 or p21 uninduced (proliferating) colon adenocarcinoma cells; experiment: Alamar Blue cell viability assay, RKO p27 or p21 uninduced (proliferating); assay type: cell-based; settings: Homo sapiens, RKOp27, 72 h, Table B2, anti-proliferative/cytotoxic activity, read-out: −log EC50 RKO p27 or p21 uninduced (proliferating) (converted)
Protocol: The anti-proliferative/cytotoxic activity of the compounds described herein can be tested on subclones of RKO human colon adenocarcinoma cells (Schmidt et al., Oncogene 19, 2423-2429; 2000) using the Alamar Blue cell viability assay (described in O'Brien et al. Eur J Biochem 267, 5421-5426, 2000). The compounds are dissolved as 10 mM solutions in DMSO and subsequently diluted in semi-logarithmic steps. DMSO dilutions are further diluted 1:100 into Dulbecco's modified Eagle's medium (DMEM) containing 10% fetal calf serum to a final concentration twice as much as the final concentration in the test. RKO subclones are seeded into 96 well flat bottom plates at a density of 4000 cells per well in a volume of 50 μl per well. 24 hours after seeding the 50 μl each of the compound dilutions in DMEM medium are added into each well of the 96 well plate. Each compound dilution is tested as triplicates. Wells containing untreated control cells are filled with 50 μl DMEM medium containing 1% DMSO. The cells are then incubated with the substances for 72 hours at 37° C. in a humidified atmosphere containing 5% carbon dioxide. To determine the viability of the cells, 10 μl of an Alamar Blue solution (Biosource) are added and the fluorescence is measured at an extinction of 544 nm and an emission of 590 nm. For the calculation of the cell viability the emission value from untreated cells is set as 100% viability and the emission rates of treated cells are set in relation to the values of untreated cells. Viabilities are expressed as % values. The Graphpad Prism program is used for the calculation of EC50 values for anti-proliferative/cytotoxic activity out of the obtained dose-response curves.
(§1) To determine the cell cycle specific mode of action, subclones of RKO colon adenocarcinoma cells (RKOp21 or RKOp27 as described by Schmidt et al. in Oncogene 19, 2423-2429; 2000) are seeded into 96 well flat bottom plates at a density of 16000 cells per well in a volume of 50 μl per well in DMEM growth medium with 10% FCS containing 10 μM Ponasterone A. 24 hours after seeding the 50 μl each of the compound dilutions in DMEM medium are added into each well of the 96-well plate. Each compound dilution is tested as triplicates. Wells containing untreated control cells are filled with 50 μl DMEM medium containing 1% DMSO. The cells are then incubated with the substances for 72 hours at 37° C. in a humidified atmosphere containing 5% carbon dioxide. To determine the viability of the cells, 10 μl of an Alamar Blue solution (Biosource) are added and the fluorescence is measured at an extinction of 544 nm and an emission of 590 nm. For the calculation of the cell viability the emission value from untreated cells is set as 100% viability and the emission rates of treated cells are set in relation to the values of untreated cells. Viabilities are expressed as % values. The Graphpad Prism program (GraphPad Software, Inc) is used for the calculation of EC50 values out of the obtained dose-response curves. Viability is compared of proliferating cells grown in the absence of the inducer Ponasterone A, versus viability of cells arrested by the expression of ectopic p27Kip1 induced by Ponasterone A.
(§2) Representative values for anti-proliferation/cytotoxicity [measured as −log EC50 (mol/l)] determined in the aforementioned assays follow from the following tables B1, B2 and B3, in which the numbers of the compounds correspond to the numbers of the examples.

[2] = system: RKO p27 or p21 induced (arrested) colon adenocarcinoma cells; experiment: Alamar Blue cell viability assay, RKO p27 or p21 induced (arrested); assay type: cell-based; settings: Homo sapiens, RKOp27, Table B2, cells arrested by Ponasterone A, 72 hours, read-out: −log EC50 RKO p27 or p21 induced (arrested) (converted)
Protocol: as §1, §2

| EC50 [2] [nM] | SMILES | EC50 [1] [nM] |
| --- | --- | --- |
| ≥ 3160 | CC(C)(C)NCCN1C(=O)N2[C@H](c3cccc(O)c3)c3[nH]c4ccc(Cl)cc4c3C[C@@]2(C)C1=O (racemic) [Example 97, (3aSR,10RS)-2-(2-tert-Butylamino-ethyl)-6-chloro-10-(3-hydroxy-phenyl)-3a-methyl-3a,4,9,10-tetrahydro-2,9,10a-triaza-cyclopenta[b]fluorene-1,3-dione] | ≤ 39.8 |
| ≥ 3160 | CC1CCN(CCN2C(=O)N3[C@H](c4cccc(O)c4)c4[nH]c5ccc(Cl)cc5c4C[C@@]3(C)C2=O)CC1 (racemic) [Example 98, (3aSR,10RS)-6-Chloro-10-(3-hydroxy-phenyl)-3a-methyl-2-[2-(4-methyl-piperidin-1-yl)-ethyl]-3a,4,9,10-tetrahydro-2,9,10a-triaza-cyclopenta[b]fluorene-1,3-dione] | ≤ 39.8 |
| ≥ 3160 | CC(C)CNCCN1C(=O)N2[C@H](c3cccc(O)c3)c3[nH]c4ccc(Cl)cc4c3C[C@@]2(C)C1=O (racemic) [Example 99, (3aSR,10RS)-6-Chloro-10-(3-hydroxy-phenyl)-2-(2-isobutylamino-ethyl)-3a-methyl-3a,4,9,10-tetrahydro-2,9,10a-triaza-cyclopenta[b]fluorene-1,3-dione] | ≤ 39.8 |
| ≥ 3160 | C[C@@]12Cc3c([nH]c4ccc(Cl)cc34)[C@@H](c3cccc(O)c3)N1C(=O)N(CCN1CC=CCC1)C2=O (racemic) [Example 100, (3aSR,10RS)-6-Chloro-2-[2-(3,6-dihydro-2H-pyridin-1-yl)-ethyl]-10-(3-hydroxy-phenyl)-3a-methyl-3a,4,9,10-tetrahydro-2,9,10a-triaza-cyclopenta[b]fluorene-1,3-dione] | ≤ 39.8 |
| ≥ 3160 | C[C@@]12Cc3c([nH]c4ccc(Cl)cc34)[C@@H](c3cccc(O)c3)N1C(=O)N(CCN1CCCCC1)C2=O (racemic) [Example 101, (3aSR,10RS)-6-Chloro-10-(3-hydroxy-phenyl)-3a-methyl-2-(2-piperidin-1-yl-ethyl)-3a,4,9,10-tetrahydro-2,9,10a-triaza-cyclopenta[b]fluorene-1,3-dione] | ≤ 39.8 |
| ≥ 3160 | C[C@@]12Cc3c([nH]c4ccc(Cl)cc34)[C@@H](c3cccc(O)c3)N1C(=O)N(CCNC1CC1)C2=O (racemic) [Example 102, (3aSR,10RS)-6-Chloro-2-(2-cyclopropylamino-ethyl)-10-(3-hydroxy-phenyl)-3a-methyl-3a,4,9,10-tetrahydro-2,9,10a-triaza-cyclopenta[b]fluorene-1,3-dione] | ≤ 39.8 |
| ≥ 3160 | C[C@@]12Cc3c([nH]c4ccc(Cl)cc34)[C@@H](c3cccc(O)c3)N1C(=O)N(CCNC1CCC1)C2=O (racemic) [Example 103, (3aSR,10RS)-6-Chloro-2-(2-cyclobutylamino-ethyl)-10-(3-hydroxy-phenyl)-3a-methyl-3a,4,9,10-tetrahydro-2,9,10a-triaza-cyclopenta[b]fluorene-1,3-dione] | ≤ 39.8 |
| ≥ 3160 | C[C@@]12Cc3c([nH]c4ccc(Cl)cc34)[C@@H](c3cccc(O)c3)N1C(=O)N(CCN1CCCCCC1)C2=O (racemic) [Example 104, (3aSR,10RS)-2-(2-Azepan-1-yl-ethyl)-6-chloro-10-(3-hydroxy-phenyl)-3a-methyl-3a,4,9,10-tetrahydro-2,9,10a-triaza-cyclopenta[b]fluorene-1,3-dione] | ≤ 39.8 |
| ≥ 316 | COc1ccc2[nH]c3c(c2c1)C[C@@]1(C)C(=O)N(CCCN2CCCCC2)C(=O)N1[C@@H]3c1cccc(O)c1 (racemic) [Example 105, (3aSR,10RS)-10-(3-Hydroxy-phenyl)-6-methoxy-3a-methyl-2-(3-piperidin-1-yl-propyl)-3a,4,9,10-tetrahydro-2,9,10a-triaza-cyclopenta[b]fluorene-1,3-dione] | ≤ 39.8 |
| ≥ 316 | COc1ccc2[nH]c3c(c2c1)C[C@@]1(C)C(=O)N(CCCN2CC=CCC2)C(=O)N1[C@@H]3c1cccc(O)c1 (racemic) [Example 106, (3aSR,10RS)-2-[3-(3,6-Dihydro-2H-pyridin-1-yl)-propyl]-10-(3-hydroxy-phenyl)-6-methoxy-3a-methyl-3a,4,9,10-tetrahydro-2,9,10a-triaza-cyclopenta[b]fluorene-1,3-dione] | ≤ 39.8 |
| ≥ 316 | CCN(CC)CCCN1C(=O)N2[C@H](c3cccc(O)c3)c3[nH]c4ccc(OC)cc4c3C[C@@]2(C)C1=O (racemic) [Example 107, (3aSR,10RS)-2-(3-Diethylamino-propyl)-10-(3-hydroxy-phenyl)-6-methoxy-3a-methyl-3a,4,9,10-tetrahydro-2,9,10a-triaza-cyclopenta[b]fluorene-1,3-dione] | ≤ 39.8 |
| ≥ 316 | C[C@@]12Cc3c([nH]c4ccc(Cl)cc34)[C@@H](c3cccc(O)c3)N1C(=O)N(CCNCC1CC1)C2=O (racemic) [Example 108, (3aSR,10RS)-6-Chloro-2-[2-(cyclopropylmethyl-amino)-ethyl]-10-(3-hydroxy-phenyl)-3a-methyl-3a,4,9,10-tetrahydro-2,9,10a-triaza-cyclopenta[b]fluorene-1,3-dione] | ≤ 39.8 |
| ≥ 316 | C[C@@]12Cc3c([nH]c4ccc(Cl)cc34)[C@@H](c3cccc(O)c3)N1C(=O)N(CCN1CC=CC1)C2=O (racemic) [Example 109, (3aSR,10RS)-6-Chloro-2-[2-(2,5-dihydro-pyrrol-1-yl)-ethyl]-10-(3-hydroxy-phenyl)-3a-methyl-3a,4,9,10-tetrahydro-2,9,10a-triaza-cyclopenta[b]fluorene-1,3-dione] | ≤ 39.8 |
| ≥ 316 | CCN(CC)CCN1C(=O)N2[C@H](c3cccc(O)c3)c3[nH]c4ccc(Cl)cc4c3C[C@@]2(C)C1=O (racemic) [Example 110, (3aSR,10RS)-6-Chloro-2-(2-diethylamino-ethyl)-10-(3-hydroxy-phenyl)-3a-methyl-3a,4,9,10-tetrahydro-2,9,10a-triaza-cyclopenta[b]fluorene-1,3-dione] | ≤ 39.8 |
| ≥ 316 | CN1CCN(CCN2C(=O)N3[C@H](c4cccc(O)c4)c4[nH]c5ccc(Cl)cc5c4C[C@@]3(C)C2=O)CC1 (racemic) [Example 111, (3aSR,10RS)-6-Chloro-10-(3-hydroxy-phenyl)-3a-methyl-2-[2-(4-methyl-piperazin-1-yl)-ethyl]-3a,4,9,10-tetrahydro-2,9,10a-triaza-cyclopenta[b]fluorene-1,3-dione] | ≤ 39.8 |
| ≥ 316 | COc1ccc2[nH]c3c(c2c1)C[C@@]1(C)C(=O)N(CCCN2CCC(C)CC2)C(=O)N1[C@@H]3c1cccc(O)c1 (racemic) [Example 112, (3aSR,10RS)-10-(3-Hydroxy-phenyl)-6-methoxy-3a-methyl-2-[3-(4-methyl-piperidin-1-yl)-propyl]-3a,4,9,10-tetrahydro-2,9,10a-triaza-cyclopenta[b]fluorene-1,3-dione] | ≤ 39.8 |
| ≥ 316 | COc1ccc2[nH]c3c(c2c1)C[C@@]1(C)C(=O)N(CCCN2CCCCCC2)C(=O)N1[C@@H]3c1cccc(O)c1 (racemic) [Example 113] | ≤ 39.8 |
